Results as given in US10662153B2 (The University of Toledo, priority 2016, dated 2020).

Experiments:
[1] = test system: hepa1c1c7 mouse hepatocytes overexpressing PPARα; assay: PPARα controlled genes in hepa1c1c7 liver cells (Real-time PCR); format: cell-based; conditions: 50 μM, 24 hours, dialyzed fatty acid-free media
Protocol: (§1) (FIG. 4D.) RNA was extracted and mRNA expression was measured by Real-time PCR.
(§2) To establish a 3T3-L1 or Hepa1c1c7 cell line that have PPARα stably overexpressed, mouse PPARα cDNA was ligated into the NotI/BamHI sites of the pQXCIP vector and transformed in DH5α cells (Invitrogen, Carlsbad, Calif.). […] The supernatants were harvested, and the cell debris was removed by centrifugation at 2000×g. The supernatant was used to infect 3T3-L1 or Hepa1c1c7 cells after addition of polybrene ([…], Sigma Chemical Co., St. Louis, Mo.) to establish cell lines with stable overexpression of a PPARα overexpressing (3T3-PPARα) or expressing empty vector (3T3-Vector). After 72 h the cells were selected with puromycin, and positive cells were confirmed by Western blotting and used for experiments.

3T3-L1 cells = assay: Adipogenesis assay (Nile Red lipid accumulation, Real-time PCR); format: cell-based, mouse
Protocol: Total RNA was read on a NanoDrop 2000® spectrophotometer (Thermo Fisher Scientific, Wilmington, Del.), and cDNA was synthesized using High Capacity cDNA Reverse Transcription Kit (Applied Biosystems). PCR amplification of the cDNA was performed by quantitative real-time PCR using TrueAmp® SYBR Green qPCR SuperMix (Advance Bioscience). The thermocycling protocol consisted of 10 min at 95° C., 40 cycles of 15 sec at 95° C., 30 sec at 60° C., and 20 sec at 72° C., and finished with a melting curve ranging from 60-95° C. to allow distinction of specific products. Normalization was performed in separate reactions with primers to GAPDH.
Adipogenic differentiation of 3T3-L1 cells was achieved by treatment with 1 μM Dex, 830 nM insulin, and 100 μM isobutylmethylxanthine in 10% FBS until Day 9. Upon differentiation, cells were stained with Nile Red to visualize lipid content, and densitometry was used as a direct measure. Total RNA extracted from Nile Red stained cells was used for real time PCR analysis.

PPARα [2] = target: T1, PPARα (Mus musculus, UniProt P23204); assay: Pull-down assay with ligand-coupled sepharose resins, PPARα OE 3T3-L1 cells; format: binding; set-up: expressed in transfected cells; conditions: ligand coupled to sepharose beads
T1 sequence (P23204 1-468): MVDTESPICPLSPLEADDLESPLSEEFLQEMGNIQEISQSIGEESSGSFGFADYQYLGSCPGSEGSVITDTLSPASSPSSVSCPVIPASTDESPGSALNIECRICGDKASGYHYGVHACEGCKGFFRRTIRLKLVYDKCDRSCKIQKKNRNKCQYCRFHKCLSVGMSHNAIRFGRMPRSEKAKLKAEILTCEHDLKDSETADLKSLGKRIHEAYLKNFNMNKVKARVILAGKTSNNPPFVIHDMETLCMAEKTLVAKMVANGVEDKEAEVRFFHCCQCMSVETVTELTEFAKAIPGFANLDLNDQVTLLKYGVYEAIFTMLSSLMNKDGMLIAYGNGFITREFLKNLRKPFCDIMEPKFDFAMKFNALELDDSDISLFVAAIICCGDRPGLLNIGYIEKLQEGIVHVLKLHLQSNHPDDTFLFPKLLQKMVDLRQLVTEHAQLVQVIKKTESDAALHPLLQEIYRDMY
Protocol: The ligand coupling was performed according to the GE Healthcare instructions (71-7097-00 AE, pg. 6) for EAH Sepharose™ 4B. The procedure in the online instructions was titled “A general ligand coupling procedure”. […] Resin coupling procedures were conducted in a DMF/H2O solvent system (1:1) with a final concentration of 0.1 M EDC*HCl. […] Upon completion, resins were washed according to the GE instructions (3 alternating washings with 0.5 M NaCl containing 0.1 M sodium acetate pH 4.5 and 0.5 M NaCl containing 0.1 M Tris pH 8) over a 10-15 μm fritted filter. As an additional step to the GE instructions, matrix-coupled bilirubin and biliverdin coupled preparations were further washed with 50% DMSO/H2O solutions (250 mL) to remove any unreacted ligand. The filtrate was nearly colorless after this step. […] The resins were suspended in 20% EtOH/H2O (15 mL) and stored at 4° C. for 16 h in capped sample vials. The ligand-coupled resin settles overnight and the supernatant was carefully decanted until minimal amounts of 20% EtOH/H2O covered the resin. […]
Whole cell extracts (WCE) were prepared by freezing the cell pellet overnight at −80° C. […] Immunoreactivity was visualized and quantified by infrared scanning in the Odyssey system (LI-COR Biosciences). […]

PPARα OE 3T3-L1 cells = assay: Endogenous PPARα gene regulatory activity in 3T3-L1 cells (Real-time PCR); format: cell-based, mouse; conditions: 50 μM, 24 hours, dialyzed fatty acid-free media
Protocol: as §1, §2

PPARα [3] = target: T1, PPARα; assay: Promoter reporter assay (PPRE-3tk-luc luciferase) in Cos7 cells; conditions: for level of PPARα activation compared among the ligands / PPARα activity at the minimal luciferase promoter: PPARα overexpressed, 50 μM each; for level of PPARα activation compared among the ligands: 24 hours (FIG. 3C); for PPARα activity at the minimal luciferase promoter: vs Veh (FIG. 3C)
Protocol: Cos7 cells were transiently transfected with a minimal PPARα responsive promoter luciferase construct (PPRE-3tk-luc) for 24 hours along with an empty vector and a vector containing PPARα cDNA (overexpression).
The mouse 3T3-L1 preadipocyte, Hepa1c1c7, and Cos7 green kidney monkey cells were routinely cultured and maintained in Dulbecco's Modified Eagles's Medium (DMEM) containing 10% bovine calf serum or FBS with 1% penicillin-streptomycin.
A PPARα minimal promoter PPRE-3tk-luc activity was measured by luciferase, and pRL-CMV Renilla reporter for normalization to transfection efficiency. Transient transfection was achieved using GeneFect® (Alkali Scientific, Inc.). Twenty-four-hour post-transfected cells were lysed and the luciferase assay was performed using the Promega® dual luciferase assay system (Promega, Madison, Wis.).

[4] = format: physicochemical
Description: (§3) This was to help increase the solubility of bilirubin in solution. […] Bilirubin was purchased commercially from Frontier Scientific.

[5] = Stability on heating during resin preparation; format: physicochemical; conditions: 75° C. for 90 min in DMF/H2O; judged by decrease in PPARα binding of resin
Description: as §3

[6] = test system: PPARα KO mice on a high fat diet; conditions: mouse, in vivo
Protocol: (§4) With respect to animals, the procedures and protocols conform to the National Institutes of Health Guide for the Care and Use of Laboratory Animals, and were approved by the Institutional Animal Care and Use Committee of the University of Mississippi Medical Center. Tests were performed on 16 week old male PPARα knockout and wild-type mice on a C57 genetic background purchased from Jackson Labs (Bar Harbor, Me.). […] After this time, mice were switched to a 60% high fat diet (diet # D12492, Research Diets, Inc., New Brunswick, N.J.) for an additional 6 weeks. […] Control mice were not treated. Mice were euthanized on the last day of the test, at which time all organs were collected and weighed.
(§5) Following an 8 hour fast, a blood sample was obtained via orbital sinus under isoflorane anesthesia.
(§6) Plasma samples from individual mice were measured in duplicate and then averaged. The concentrations are expressed as mg/dL Plasma alanine aminotransferase (ALT) and aspartate aminotransferase (AST) levels were determined in 50 μL of plasma by colorimetric assay (Cobas, Rochce Diagnostics, Indianapolis, Ind.). Assays were performed according to the manufacturer's guidelines and samples were read on a Roche Cobas c501 analyzer. The concentrations were expressed as units/L.

[7] = test system: PPARα KO mice on a high fat diet; assay: High fat diet PPARα KO mice treated for seven days; conditions: bilirubin 30 mg/kg or fenofibrate 90 mg/kg i.p.
Protocol: as §4, §5, §6

[8] = test system: wild-type mice on a high fat diet; conditions: mouse, in vivo
Protocol: as §4, §5, §6

[9] = 10 μM, differentiated 3T3-L1 adipocytes

| level of PPARα activation compared among the ligands (PPARα [3]; Cos7 cells) | PPARα activity at the minimal luciferase promoter (PPARα [3]; Cos7 cells, 24 hours) | solubility in organic solvents [4] | SMILES | CD36 mRNA [1] | CYP4A10 mRNA [1] | FGF21 mRNA response [1] | Pyruvate dehydrogenase kinase 4 (PDK4) expression [1] | angiopoietin-like 4 (ANGPTL4) expression [1] | heme oxygenase-1 (HO-1) mRNA response [1] | reduction of lipid accumulation (3T3-L1 cells; 10 μM over the 9 day protocol) | expression of FAS (3T3-L1 cells; [9]) | reduction of lipid accumulation (3T3-L1 cells; 50 μM over the 9 day protocol) | CD36 mRNA expression (PPARα OE 3T3-L1 cells) | further results |
| --- | --- | --- | --- | --- | --- | --- | --- | --- | --- | --- | --- | --- | --- | --- |
| higher than biliverdin or fenofibrate | significantly (p<0.0001) increased | readily soluble | Cc1cccc(Nc2cc(Cl)nc(SCC(=O)O)n2)c1C [WY 14,643] | responded | responded | not | significantly (p<0.05) higher | significantly increased | not | 56% | significantly (p<0.001) decreased expression of FAS | 33% | strongly induced expression | direct binding to PPARα (pull-down) (PPARα [2]): can directly bind; induction of PPARα activity (PPARα [3]; Cos7 cells transfected with PPARα and RXR, 50 μM, 24 hrs (FIG. 12)): 2.1 fold |
| – | – | limited solubility | C=CC1=C(C)/C(=C/c2[nH]c(Cc3[nH]c(/C=C4\NC(=O)C(C)=C4C=C)c(C)c3CCC(=O)O)c(CCC(=O)O)c2C)NC1=O [bilirubin] | – | – | – | – | – | – | – | – | – | – | stability with heating [5]: less stable with heating; alanine aminotransferase (ALT) [6]: significantly (p<0.05) decreased; aspartate aminotransferase (AST) [6]: significantly (p<0.05) decreased; body weight [7]: no effect; alanine aminotransferase (ALT) [8]: no change; aspartate aminotransferase (AST) [8]: no change |
| same level of PPARα activation | significantly (p<0.0001) increased | readily soluble | C=CC1=C(C)/C(=C/C2=NC(=C\c3[nH]c(/C=C4\NC(=O)C(C)=C4C=C)c(C)c3CCC(=O)O)/C(CCC(=O)O)=C2C)NC1=O [biliverdin] | not | not | increased | increased with all the ligands | significantly increased | increased | 50% | significantly (p<0.001) decreased expression of FAS | 91% | significantly (p<0.05) increased CD36 mRNA expression more than fenofibrate | reduction of lipid accumulation (3T3-L1 cells; 10 μM over the 9 day protocol, listed as Biliverdin): 49%; expression of CPT1 (3T3-L1 cells; [9]): significantly (p<0.001) increased expression of CPT1; CPT1 expression (PPARα OE 3T3-L1 cells): increased CPT1 and FGF21 expression more than WY 14,643 treatment; FGF21 mRNA expression (PPARα OE 3T3-L1 cells): significantly (p<0.05) enhanced FGF21 mRNA higher than fenofibrate; PPARα activity (PPRE-3tk-luc) (PPARα [3]; Cos7 cells, PPARα overexpression, dose dependence, 24 hours, vs 0 μM): significantly (p<0.05) increased; PPRE-3tk-luc promoter activation in the absence of PPARα (PPARα [3]; Cos7 cells, empty vector, dose dependence, 24 hours): did not activate; water solubility [4]: greater water solubility than bilirubin |
| – | – | – | CC(C)OC(=O)C(C)(C)Oc1ccc(C(=O)c2ccc(Cl)cc2)cc1 [fenofibrate] | – | – | – | – | – | – | 48% | – | 51% | – | – |
